In one assay the target is c-Src tyrosine kinase (Homo sapiens (Human), UniProt P12931). Kind of assay: in vitro c-Src tyrosine kinase inhibition (32P-ATP, poly(D4Y)n substrate). The following applies: 1 uM compound; read-out: % inhibition against c-Src. Format: biochemical.
For another assay, the target named is Lyn tyrosine kinase (Homo sapiens (Human), UniProt P07948). In words: in vitro Lyn tyrosine kinase inhibition. In kind it is biochemical. The following applies: 1 uM compound; read-out: % inhibition against Lyn.
Chain of Lyn tyrosine kinase (P07948 whole entry): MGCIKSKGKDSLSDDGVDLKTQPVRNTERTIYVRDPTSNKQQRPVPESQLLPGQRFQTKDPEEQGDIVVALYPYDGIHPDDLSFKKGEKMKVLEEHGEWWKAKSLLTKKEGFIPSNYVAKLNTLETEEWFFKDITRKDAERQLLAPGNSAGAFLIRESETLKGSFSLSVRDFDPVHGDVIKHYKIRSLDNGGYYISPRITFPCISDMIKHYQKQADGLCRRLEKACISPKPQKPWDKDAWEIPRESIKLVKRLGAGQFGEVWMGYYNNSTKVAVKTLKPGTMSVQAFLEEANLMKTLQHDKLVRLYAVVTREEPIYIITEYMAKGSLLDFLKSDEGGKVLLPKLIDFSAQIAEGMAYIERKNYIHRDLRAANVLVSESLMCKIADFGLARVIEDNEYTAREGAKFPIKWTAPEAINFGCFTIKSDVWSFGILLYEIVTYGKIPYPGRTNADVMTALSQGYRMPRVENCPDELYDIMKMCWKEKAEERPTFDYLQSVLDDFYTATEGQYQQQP
A further assay relates to mouse skin fibroblast. Kind of assay: inhibition of migration of activated fibroblast (scratch wound). Format: cell-based. The following applies: 0.5 uM compound, 10 ng/ml TGF-β1, 24 hours, read-out: Inhibition (%) of migration of activated fibroblast. On the procedure:
The straight line of regular width was made using a micro pipette tip for a scratch wound on the mono-layer culture, and then the culture was exchanged to DMEM medium and incubated with 10 ng/ml of TGF-β1 in cell culture incubator of 37° C. for 24 hours. The cultured cells were fixed using formalin and stained with crystal violet. Photo-pictures were taken at 100× magnification in five location selected randomly in the scratched wound site of each stained culture dish and then the number of the cells moved into the scratched wound area was counted and averaged.

Another assay concerns the target Fgr tyrosine kinase (Homo sapiens (Human), UniProt P09769). In words: in vitro Fgr tyrosine kinase inhibition. Format: biochemical. The following applies: 1 uM compound; read-out: % inhibition against Fgr.
A further assay addresses Hck tyrosine kinase (Homo sapiens (Human), UniProt P08631). In words: in vitro Hck tyrosine kinase inhibition. The following applies: 1 uM compound; read-out: % inhibition against Hck. Format: biochemical.
Assay [1] deals with TNF-α synthesis in J744A.1 macrophages. In words: inhibition of TNF-α synthesis in LPS-activated macrophages (ELISA). As to conditions: Macrophage; 10 μM compound, 100 ng/ml LPS, 6 hours; read-out: Inhibition (%) of TNF-α synthesis. Format: cell-based. (In general: In an ELISA, binding on a coated surface is turned into a signal by an enzyme label.)
Assay [2] deals with α-smooth muscle actin protein expression in skin fibroblast cells. Kind of assay: inhibition of α-smooth muscle actin expression in fibroblast activated by type I collagen and TGF-β1 (western blotting). Format: cell-based, Balb/C mouse. The following applies: Mus musculus, 0.5 uM compound, 10 ng/ml TGF-β1, 48 hours, type I collagen, read-out: Inhibition (%) of α-smooth muscle actin increase. The text has this: When fibroblast, […] alpha smooth muscle cells are converted to myofibroblast by activation, one of characteristic features is that α-smooth muscle actin protein expression is increased. Also myoblast cells with the increased α-smooth muscle actin expression have a character of an increased migration. These phenomena appear together with the activation of inflammatory cells and the activated myoblast-type cells are known to contribute directly to the pathology of inflammatory diseases. […] In this experiment, the expression level of alpha smooth muscle actin can be quantificated by measuring the density of α-smooth muscle actin protein band with densitometer after developing the X-ray film of chemiluminescence signal in western blotting experiment.

The test system of assay [3] is NO synthesis in J744A.1 macrophage. Kind of assay: inhibition of nitric oxide (NO) synthesis in LPS-activated macrophages (Griess reagent). Format: cell-based. The following applies: 10 μM compound, LPS, 24 hours, read-out: Inhibition (%) of NO synthesis. On the technique in general: The Griess reaction detects nitrite, a stable product of nitric oxide.
The test system of assay [4] is oxazolone-induced skin inflammation of Balb/C mouse ears. In words: mouse skin inflammatory model induced by oxazolone (ear thickness). In kind it is in vivo. As to conditions: 20 ul of 0.1% compound topical on ear, 36 hours after oxazolone. As to the method: The compounds of the present invention were evaluated for their effective anti-inflammatory activity using a skin inflammatory animal model of 8 weeks old Balb/C mouse ears induced by oxazolone. […] After 4 days, the thickness of ear was measured using a caliper for the thickness value of ear before the induction of inflammation. […] After 36 hours, the thickness of ear was measured for the increased thickness induced by inflammation. […] The average value was obtained in each group (n=4).

A further assay concerns the target DDR2 tyrosine kinase (Homo sapiens (Human), UniProt Q16832). In words: in vitro DDR2 tyrosine kinase inhibition (GST-fused kinase domain). In kind it is biochemical. The following applies: 1 uM compound; read-out: % inhibition against DDR2.
The target in the next assay is DDR1 tyrosine kinase (Homo sapiens (Human), UniProt Q08345). In words: in vitro DDR1 tyrosine kinase inhibition (GST-fused kinase domain). In kind it is biochemical. The following applies: 1 uM compound; read-out: % inhibition against DDR1.
Chain of DDR1 tyrosine kinase (Q08345 610-905): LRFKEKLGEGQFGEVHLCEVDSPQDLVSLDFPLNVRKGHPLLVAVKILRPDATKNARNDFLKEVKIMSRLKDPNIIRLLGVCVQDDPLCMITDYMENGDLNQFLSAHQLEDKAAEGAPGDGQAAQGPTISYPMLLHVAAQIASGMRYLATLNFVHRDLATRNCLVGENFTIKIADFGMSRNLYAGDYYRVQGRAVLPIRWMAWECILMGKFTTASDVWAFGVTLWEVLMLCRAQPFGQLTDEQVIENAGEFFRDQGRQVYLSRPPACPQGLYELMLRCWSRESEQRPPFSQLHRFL

Chain of Hck tyrosine kinase (P08631 whole entry): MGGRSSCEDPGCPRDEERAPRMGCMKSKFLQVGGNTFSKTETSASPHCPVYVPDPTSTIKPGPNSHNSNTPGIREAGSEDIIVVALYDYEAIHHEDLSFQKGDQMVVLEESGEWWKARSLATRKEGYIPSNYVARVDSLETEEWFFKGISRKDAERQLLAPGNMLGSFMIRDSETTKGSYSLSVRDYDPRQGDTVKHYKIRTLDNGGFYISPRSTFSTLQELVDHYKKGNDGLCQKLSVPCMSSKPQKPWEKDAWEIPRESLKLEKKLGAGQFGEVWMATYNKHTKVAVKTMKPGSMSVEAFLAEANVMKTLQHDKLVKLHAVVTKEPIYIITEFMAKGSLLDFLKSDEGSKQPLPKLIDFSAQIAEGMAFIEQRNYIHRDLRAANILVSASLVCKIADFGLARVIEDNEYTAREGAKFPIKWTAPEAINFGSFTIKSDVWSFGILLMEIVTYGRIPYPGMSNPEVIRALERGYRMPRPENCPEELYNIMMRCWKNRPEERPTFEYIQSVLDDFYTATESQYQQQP
Chain of c-Src tyrosine kinase (P12931 whole entry, looked up): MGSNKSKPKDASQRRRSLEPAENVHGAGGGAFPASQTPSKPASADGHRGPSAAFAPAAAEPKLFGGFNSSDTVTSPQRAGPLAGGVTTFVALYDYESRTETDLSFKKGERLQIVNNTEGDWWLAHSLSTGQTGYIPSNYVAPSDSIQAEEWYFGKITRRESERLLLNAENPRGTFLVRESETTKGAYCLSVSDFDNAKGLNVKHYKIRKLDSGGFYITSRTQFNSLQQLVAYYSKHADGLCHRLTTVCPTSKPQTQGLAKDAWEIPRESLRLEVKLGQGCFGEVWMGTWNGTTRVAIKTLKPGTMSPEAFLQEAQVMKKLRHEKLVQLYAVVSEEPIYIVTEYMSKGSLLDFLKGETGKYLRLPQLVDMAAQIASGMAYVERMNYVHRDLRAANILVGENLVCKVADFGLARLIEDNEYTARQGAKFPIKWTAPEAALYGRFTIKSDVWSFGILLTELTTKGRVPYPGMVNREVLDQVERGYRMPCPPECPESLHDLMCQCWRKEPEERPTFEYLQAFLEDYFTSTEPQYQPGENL
Chain of Fgr tyrosine kinase (P09769 whole entry): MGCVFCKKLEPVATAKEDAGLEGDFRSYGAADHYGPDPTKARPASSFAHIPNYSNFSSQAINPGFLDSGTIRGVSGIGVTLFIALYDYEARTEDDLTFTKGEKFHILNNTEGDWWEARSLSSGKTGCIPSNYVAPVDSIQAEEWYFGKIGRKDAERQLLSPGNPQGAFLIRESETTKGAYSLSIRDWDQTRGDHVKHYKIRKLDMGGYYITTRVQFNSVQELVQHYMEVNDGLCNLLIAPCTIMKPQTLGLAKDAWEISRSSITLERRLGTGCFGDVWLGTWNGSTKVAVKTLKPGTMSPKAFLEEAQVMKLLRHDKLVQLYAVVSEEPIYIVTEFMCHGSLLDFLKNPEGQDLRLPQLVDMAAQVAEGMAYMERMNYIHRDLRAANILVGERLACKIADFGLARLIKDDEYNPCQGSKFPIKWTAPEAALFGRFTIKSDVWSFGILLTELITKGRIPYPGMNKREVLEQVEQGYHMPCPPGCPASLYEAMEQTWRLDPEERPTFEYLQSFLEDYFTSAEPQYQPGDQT
Chain of DDR2 tyrosine kinase (Q16832 563-849): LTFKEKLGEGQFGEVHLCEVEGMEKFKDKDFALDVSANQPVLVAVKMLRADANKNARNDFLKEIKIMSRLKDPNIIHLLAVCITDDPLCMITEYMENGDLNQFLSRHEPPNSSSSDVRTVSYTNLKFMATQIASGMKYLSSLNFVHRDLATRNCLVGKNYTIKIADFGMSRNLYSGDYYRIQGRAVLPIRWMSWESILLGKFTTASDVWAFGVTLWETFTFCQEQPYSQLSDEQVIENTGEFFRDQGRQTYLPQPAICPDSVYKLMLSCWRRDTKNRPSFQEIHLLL

For `Cl.Oc1cccc(Nc2ncnc3cc(-c4cccc(CN5CCCCC5)c4)sc23)c1` [LCB 03-0060, 3-(6-(3-(piperidin-1-ylmethyl)phenyl)thieno[3,2-d]pyrimidin-4-ylamino)phenol], the inhibition at 1 µM on c-Src tyrosine kinase, at Lyn tyrosine kinase, at Fgr tyrosine kinase, on Hck tyrosine kinase, on DDR2 tyrosine kinase and at DDR1 tyrosine kinase was over 80% throughout. The inhibition at 0.5 µM came out at 42% in the assay with mouse skin fibroblast and 65% in assay [2]. Moreover, the figures for the inhibition at 10 µM in assay [1] and in assay [3] were 78% and 93%, respectively. Further, the “Inhibition (%) of increase of ear thickness” value in [4] is on record as 66%.

As for `CN1CCN(Cc2cccc(-c3cc4ncnc(Nc5cccc(O)c5)c4s3)c2)CC1.Cl` [LCB 03-0061, 3-(6-(3-((4-methylpiperazin-1-yl)methyl)phenyl)thieno[3,2-d]pyrimidin-4-ylamino)phenol], the inhibition at 1 µM on c-Src tyrosine kinase, at Lyn tyrosine kinase, at Fgr tyrosine kinase, on Hck tyrosine kinase, on DDR2 tyrosine kinase and at DDR1 tyrosine kinase was over 80% each time. Further, the inhibition at 0.5 µM in the assay on mouse skin fibroblast came to 44%; in [2], 68%. Moreover, the inhibition at 10 µM in assay [1] was 91%; in assay [3] it was 92%. Moreover, the “Inhibition (%) of increase of ear thickness” value in assay [4] turned out to be 55%.

On to `Cl.Oc1cccc(Nc2ncnc3cc(-c4cccc(CN5CCCC5)c4)sc23)c1` [LCB 03-0062, 3-(6-(3-(pyrrolidin-1-ylmethyl)phenyl)thieno[3,2-d]pyrimidin-4-ylamino)phenol], for which the inhibition at 1 µM at c-Src tyrosine kinase, on Lyn tyrosine kinase, at Fgr tyrosine kinase, on Hck tyrosine kinase, at DDR2 tyrosine kinase and on DDR1 tyrosine kinase was over 80% in each case. Further, the values for the inhibition at 0.5 µM (in the assay with mouse skin fibroblast; in [2]) were 41% and 64%, respectively. The figures for the inhibition at 10 µM in [1] and in assay [3] were 82% and 93%, respectively. In [4], the “Inhibition (%) of increase of ear thickness” value stood at 57%.

For `CCN(CC)Cc1cccc(-c2cc3ncnc(Nc4cccc(O)c4)c3s2)c1.Cl` [LCB 03-0063, 3-(6-(3-((diethylamino)methyl)phenyl)thieno[3,2-d]pyrimidin-4-ylamino)phenol], the inhibition at 1 µM on c-Src tyrosine kinase, at Lyn tyrosine kinase, on Fgr tyrosine kinase, at Hck tyrosine kinase, on DDR2 tyrosine kinase and on DDR1 tyrosine kinase was over 80% throughout. Besides, the inhibition at 0.5 µM with mouse skin fibroblast stood at 36%; in assay [2], 61%. The values for the inhibition at 10 µM in [1] and in assay [3] were 85% and 89%, respectively. Also, in assay [4], the “Inhibition (%) of increase of ear thickness” value is listed as 51%.

For `Cl.Oc1cccc(Nc2ncnc3cc(-c4cccc(CN5CCNCC5)c4)sc23)c1` [LCB 03-0064, 3-(6-(3-(piperazin-1-ylmethyl)phenyl)thieno[3,2-d]pyrimidin-4-ylamino)phenol], the inhibition at 1 µM on c-Src tyrosine kinase, on Lyn tyrosine kinase, at Fgr tyrosine kinase, at Hck tyrosine kinase, at DDR2 tyrosine kinase and on DDR1 tyrosine kinase was over 80% each time. Also, the inhibition at 0.5 µM in the assay on mouse skin fibroblast worked out at 41%; in [2], 66%. Besides, the inhibition at 10 µM in assay [1] amounted to 73%; in assay [3], 79%. The “Inhibition (%) of increase of ear thickness” value in [4] turned out to be 63%.

On to `CCNCc1cccc(-c2cc3ncnc(Nc4cccc(O)c4)c3s2)c1.Cl` [LCB 03-0065, 3-(6-(3-((ethylamino)methyl)phenyl)thieno[3,2-d]pyrimidin-4-ylamino)phenol], for which the inhibition at 1 µM at c-Src tyrosine kinase was over 80%; on Lyn tyrosine kinase, over 80%; at Fgr tyrosine kinase, over 80%; at Hck tyrosine kinase, over 80%; at DDR2 tyrosine kinase, over 70%; at DDR1 tyrosine kinase it was over 70%. For the same compound, the inhibition at 0.5 µM in the assay on mouse skin fibroblast came out at 35%; in [2] it was 58%. Also, the values for the inhibition at 10 µM in assay [1] and in assay [3] were 79% and 84%, respectively. For the same compound, the “Inhibition (%) of increase of ear thickness” value in assay [4] is 52%.

Turning to `Cl.Oc1cccc(Nc2ncnc3cc(-c4cccc(CN5CCOCC5)c4)sc23)c1` [LCB 03-0066, 3-(6-(3-(morpholinomethyl)phenyl)thieno[3,2-d]pyrimidin-4-ylamino)phenol], the inhibition at 1 µM at c-Src tyrosine kinase, at Lyn tyrosine kinase, at Fgr tyrosine kinase, at Hck tyrosine kinase, on DDR2 tyrosine kinase and at DDR1 tyrosine kinase was over 80% in each case. In addition, the inhibition at 0.5 µM with mouse skin fibroblast was determined as 54%; in [2], 75%. Further, the inhibition at 10 µM is 93% in [1] and 87% in assay [3]. In addition, the “Inhibition (%) of increase of ear thickness” value in [4] amounted to 67%.

In the case of `CC(C)CNCc1cccc(-c2cc3ncnc(Nc4cccc(O)c4)c3s2)c1.Cl` [LCB 03-0067, 3-(6-(3-((isobutylamino)methyl)phenyl)thieno[3,2-d]pyrimidin-4-ylamino)phenol], the inhibition at 1 µM on c-Src tyrosine kinase, at Lyn tyrosine kinase, on Fgr tyrosine kinase, at Hck tyrosine kinase, on DDR2 tyrosine kinase and at DDR1 tyrosine kinase was over 80% in each case. Also, the results for the inhibition at 0.5 µM (in the assay on mouse skin fibroblast; in assay [2]) were 33% and 49%, respectively. Besides, the results for the inhibition at 10 µM in [1] and in assay [3] were 83% and 85%, respectively. Moreover, the “Inhibition (%) of increase of ear thickness” value in assay [4] is reported as 54%.

Regarding `Cl.OCCNCc1ccc(-c2cc3ncnc(Nc4cccc(O)c4)c3s2)cc1` [LCB 03-0070, 3-(6-(4-((2-hydroxyethylamino)methyl)phenyl)thieno[3,2-d]pyrimidin-4-ylamino)phenol], the inhibition at 1 µM on c-Src tyrosine kinase, at Lyn tyrosine kinase, on Fgr tyrosine kinase, on Hck tyrosine kinase, at DDR2 tyrosine kinase and on DDR1 tyrosine kinase was over 80% in each case. Moreover, the inhibition at 0.5 µM in the assay on mouse skin fibroblast was 30%; in assay [2] it was 42%. The inhibition at 10 µM stood at 77% in [1] and 90% in [3]. Besides, the “Inhibition (%) of increase of ear thickness” value in [4] turned out to be 55%.

As for `Cl.Oc1cccc(Nc2ncnc3cc(-c4cccc(CCN5CCCC5)c4)sc23)c1` [LCB 03-0076, 3-(6-(3-(2-(pyrrolidin-1-yl)ethyl)phenyl)thieno[3,2-d]pyrimidin-4-ylamino)phenol], the inhibition at 1 µM at c-Src tyrosine kinase, on Lyn tyrosine kinase, at Fgr tyrosine kinase, on Hck tyrosine kinase, at DDR2 tyrosine kinase and at DDR1 tyrosine kinase was over 80% each time. The figures for the inhibition at 0.5 µM (with mouse skin fibroblast; in [2]) were 45% and 57%, respectively. For the same compound, the inhibition at 10 µM in assay [1] was found to be 90%; in assay [3], 91%. For the same compound, the “Inhibition (%) of increase of ear thickness” value in assay [4] is listed as 54%.

With `Oc1cccc(Nc2ncnc3cc(-c4cccc(CCN5CCNCC5)c4)sc23)c1` [LCB 03-0079, 3-(6-(3-(2-(piperazin-1-yl)ethyl)phenyl)thieno[3,2-d]pyrimidin-4-ylamino)phenol], the inhibition at 1 µM at c-Src tyrosine kinase, at Lyn tyrosine kinase, on Fgr tyrosine kinase, at Hck tyrosine kinase, on DDR2 tyrosine kinase and on DDR1 tyrosine kinase was over 80% throughout. In addition, the inhibition at 0.5 µM with mouse skin fibroblast came to 41%; in assay [2], 61%. Further, the results for the inhibition at 10 µM in assay [1] and in assay [3] were 67% and 74%, respectively. In addition, in [4], the “Inhibition (%) of increase of ear thickness” value is given as 51%.
